# Patent US11274106B2, “Topoisomerase inhibitors with antibacterial and anticancer activity” (THE BOARD OF TRUSTEES OF THE UNIVERSITY OF ILLINOIS, priority 2017, dated 2022)
# Like-named read-outs stand apart in the source and are kept apart here.
# Experiments:
# Format in all cases: cell-based
# HL-60 = assay: Cell viability Alamar Blue assay, HL-60; conditions: Homo sapiens, HL-60, 72 h, Leukemia, mean ± SEM
# Source text: (§1) Topoisomerase inhibitors such as DOX are used as single agent and in combination therapy to treat a wide-range of cancer types.
# HeLa = assay: Antiproliferative SRB assay, HeLa; conditions: Homo sapiens, 72 h, Ovarian cancer (footnote e), mean ± SEM
# Source text: as §1
# E. coli = assay: Antibacterial MIC, microbroth dilution, E. coli
# Method: (§2) To investigate this possibility, the antibacterial effects of the DNM derivatives was assessed against strains of E. coli, S. aureus, and MRSA using the microbroth dilution method (Table 2).
# S. aureus = assay: Antibacterial MIC, microbroth dilution, S. aureus
# Method: as §2
# BT-474 = assay: Antiproliferative SRB assay, BT-474; conditions: for IC50: Homo sapiens, BT-474, 72 h, Breast cancer, mean ± SEM
# Source text: as §1
# HCT-116 = assay: Antiproliferative SRB assay, HCT-116; conditions: Homo sapiens, HCT-116, 72 h, Colon cancer, mean ± SEM
# Source text: as §1
# ES-2 = assay: Antiproliferative SRB assay, ES-2; conditions: Homo sapiens, ES-2, 72 h, Cervical cancer (footnote f), mean ± SEM
# Source text: as §1
# H460 = assay: Antiproliferative SRB assay, H460; conditions: Homo sapiens, NCI-H460, 72 h, Lung cancer, mean ± SEM
# Source text: as §1
# Top1 [1] = biological target: T1, Top1 (Homo sapiens, UniProt P11387); assay: Top1 degradation by Western blot, MDA-MB-231; parameters: dose or concentration left out as unconfirmed; conditions: 4, and 6 hours, then 30-minute drug-free media
# T1 sequence (P11387 1-765): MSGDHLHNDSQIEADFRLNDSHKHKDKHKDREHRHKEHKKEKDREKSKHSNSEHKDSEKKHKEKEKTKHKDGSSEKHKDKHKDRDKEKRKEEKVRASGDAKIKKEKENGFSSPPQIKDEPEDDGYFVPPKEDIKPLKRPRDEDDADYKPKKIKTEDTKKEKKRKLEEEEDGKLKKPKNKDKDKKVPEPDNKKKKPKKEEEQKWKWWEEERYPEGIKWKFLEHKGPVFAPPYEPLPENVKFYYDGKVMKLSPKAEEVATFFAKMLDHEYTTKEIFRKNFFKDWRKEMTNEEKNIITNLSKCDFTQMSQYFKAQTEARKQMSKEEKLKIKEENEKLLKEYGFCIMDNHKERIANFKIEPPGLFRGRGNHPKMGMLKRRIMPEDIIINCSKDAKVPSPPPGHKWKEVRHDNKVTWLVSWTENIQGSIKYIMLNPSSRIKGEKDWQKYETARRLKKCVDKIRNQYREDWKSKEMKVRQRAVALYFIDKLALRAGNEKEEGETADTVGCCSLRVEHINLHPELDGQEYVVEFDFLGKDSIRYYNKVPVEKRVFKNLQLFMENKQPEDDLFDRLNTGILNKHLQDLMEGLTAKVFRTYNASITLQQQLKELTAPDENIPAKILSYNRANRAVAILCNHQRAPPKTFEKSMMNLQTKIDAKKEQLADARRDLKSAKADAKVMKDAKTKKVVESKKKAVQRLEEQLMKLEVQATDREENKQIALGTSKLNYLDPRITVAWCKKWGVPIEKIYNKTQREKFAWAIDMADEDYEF
# Method: (§3) FIG. 4. Level of Top1-degradation predicts cell line sensitivity. (a) Cells treated with 25 μM of compound for indicated times followed by a 30 minute incubation with drug-free media. Cells were lysed with RIPA and Top1 levels assessed by Western Blot. (b) Degradation of Top1 results in a right-ward shift in the dose-response curve. Effect is most pronounced in Top1-poisons (Ph-6DNM-NH3, CPT) than Top1 catalytic inhibitor (6DNM-Pyr). Cell death measured by SRB assay after 72 hour of compound exposure (n≥3 biological replicates, error bars show SEM).
# (§4) This difference in mechanism of action between Ph-6DNM-NH3 and 6DNM-Pyr may provide an explanation of the differences in cell line sensitivities between the different DNM derivatives. […] This downregulation serves as a resistance mechanism and the level of Top1 degradation is correlated with reduced sensitivity to CPT. To determine if a similar mechanism is responsible for the reduced sensitivity to Ph-6DNM-NH3 and its derivatives in certain cell lines, the effects of Ph-6DNM-NH3 and 6DNM-Pyr were compared to that of CPT in […] and BT-474, two cancer cell lines known to be deficient and proficient in Top1 degradation, respectively. Cells were treated with 50 μM Ph-6DNM-NH3, 6DNM-Pyr, or CPT for 2, 4, and 6 hours. Following a 30-minute incubation with drug-free media to allow for the reversal of any Top1cc formed, cells were lysed and Top1 concentrations assessed by Western blot (FIG. 4a).
# Top1 [2] = biological target: T1, Top1; assay: Top1 degradation by Western blot, BT-474; conditions: 50 μM for 2, 4, and 6 hours, then 30-minute drug-free media
# Method: as §3, §4
# [3] = tested on: MDA-MB-231 triple negative breast cancer cells; assay: Antiproliferative SRB assay, MDA-MB-231; conditions: for IC50: SRB assay, mean ± SEM
# Method: FIG. 1. […] Cell death measured by SRB assay after 72 hour of compound exposure (n≥3 biological replicates, error bars show SEM). IC50 values given as mean±SEM from ≥3 biological replicates.
# To investigate the feasibility of developing a class of antitumor antibiotics based upon the DNM scaffold, the ability of the DNM to exert an antiproliferative effect against MDA-MB-231 breast cancer cells was evaluated.
# [4] = Homo sapiens, MDA-MB-231, 72 h, Breast cancer, read-out: 72 hour IC50, MDA-MB-231
MIC (E. coli; Escherichia coli) [µg/mL],MIC (S. aureus; Staphylococcus aureus) [µg/mL],"IC50 ([3]; Homo sapiens, MDA-MB-231, 72 h, 72 hour compound exposure, read-out: MDA-MB-231 IC50) [nM]",Structure (SMILES),IC50 (HL-60) [nM],IC50 (HeLa) [nM],IC50 (BT-474) [nM],IC50 (HCT-116) [nM],IC50 (ES-2) [nM],IC50 (H460) [nM],Top1 levels by Western blot in MDA-MB-231 (Top1 [1]),Top1 levels by Western blot in BT-474 (Top1 [2]),"IC50 [3, 4] [nM]",E. coli MIC (E. coli) [µg/mL],S. aureus MIC (S. aureus) [µg/mL],"Effectiveness in BT-474 after Top1 degradation (BT-474; FIG. 4b, 72 hour)","Improvement in potency relative to 6DNM-NH3 ([3]; MDA-MB-231, Table 1) [fold]","IC50 ([3]; 72 hour compound exposure, read-out: MDA-MB-231 IC50) [nM]"
1,0.5,14 ± 1,Cc1cc(=O)n(C)c2c3c4c(cc12)c(C)cc(=O)n4C(CN1CCCC1)CO3 (centres unmarked) [Compound 20],48 ± 11,27 ± 1,91 ± 4,9 ± 1,17 ± 4,6.6 ± 0.5,minimal differences in Top1 relative to untreated cells,minimal effect,14 ± 1,,,,,
,,,Cc1cc(=O)n2c3c(c4c(cc13)c1ccccc1c(=O)n4C)OCC2CN (centres unmarked) [Compound 15],470 ± 90,56 ± 5,690 ± 50,37 ± 13,28 ± 6,12 ± 2,minimal differences in Top1 relative to untreated cells,time-dependent decrease in the levels of Top1,30 ± 6,0.25,1,"similarly reduced, however to a lesser extent",4.5,48 ± 8
